Assay results published in patent US20060003980A1, “Cobalt(II) complexes as protein tyrosine kinase inhibitors” (priority 2004, published 2006).
“Also recorded” adds a separate entry of the source. Read-outs that look alike come from different tables or passages of the source.

Tests used:
[1] = target: FGF receptor (FGFr) (Homo sapiens, UniProt P11362); assay: Tyrosine kinase activity of FGFr using poly E4Y and 32P-ATP; format: biochemical
Protocol: Recombinant human Src was expressed using the baculovirus-insect cell system and purified as published (Budde et al., 1993). Recombinant Csk and the FGF receptor (FGFr) were expressed as glutathione-S-transferase fusion proteins using the pGEX expression vector and E. coli, and purified as described (Sun et al., 1995). The tyrosine kinase activity of Src, Csk and FGFr was determined using poly E4Y and ^32P-ATP. […] Poly E4Y is a synthetic peptide whose phosphorylation is measured in this assay by the addition of the radioactively labeled phosphate from the ATP (Budde et al., 1994). For screening assays, 50 μg/ml poly E4Y was used.

[2] = target: Src (Homo sapiens, UniProt P12931); assay: Tyrosine kinase activity of Src using poly E4Y and 32P-ATP; format: biochemical
Protocol: (§1) Recombinant human Src was expressed using the baculovirus-insect cell system and purified as published (Budde et al., 1993). Recombinant Csk and the FGF receptor (FGFr) were expressed as glutathione-S-transferase fusion proteins using the pGEX expression vector and E. coli, and purified as described (Sun et al., 1995).
(§2) The tyrosine kinase activity of Src, Csk and FGFr was determined using poly E4Y and ^32P-ATP. Briefly, enzymes were assayed in a reaction mixture consisting of 0.15 M EPPS-NaOH (pH 8.0) with 6 mM MgCl2, 0.2 mM γ^32P-ATP (0.2-0.4 mCi/μmol), 10% glycerol, 0.1% Triton X-100, and poly E4Y. Poly E4Y is a synthetic peptide whose phosphorylation is measured in this assay by the addition of the radioactively labeled phosphate from the ATP (Budde et al., 1994). For screening assays, 50 μg/ml poly E4Y was used.

[3] = target: T1, Csk (Homo sapiens, UniProt P41240); assay: Tyrosine kinase activity of Csk using poly E4Y and 32P-ATP; format: biochemical
T1 construct: GST (glutathione-S-transferase); made in house; host or cells: E. coli (pGEX vector)
Protocol: as §1, §2

[4] = tested on: cell growth; assay: Cell growth inhibition (FIG. 1); format: cell-based
Source text: FIG. 1 graphically illustrates that a stable cobalt-tyrosineamide identified as complex no.
This indicates a requirement for both the tyrosine amide moiety and for the metal moiety.

[5] = * = Extrapolated value from the graph

Chain of FGF receptor (FGFr) (P11362 398-822): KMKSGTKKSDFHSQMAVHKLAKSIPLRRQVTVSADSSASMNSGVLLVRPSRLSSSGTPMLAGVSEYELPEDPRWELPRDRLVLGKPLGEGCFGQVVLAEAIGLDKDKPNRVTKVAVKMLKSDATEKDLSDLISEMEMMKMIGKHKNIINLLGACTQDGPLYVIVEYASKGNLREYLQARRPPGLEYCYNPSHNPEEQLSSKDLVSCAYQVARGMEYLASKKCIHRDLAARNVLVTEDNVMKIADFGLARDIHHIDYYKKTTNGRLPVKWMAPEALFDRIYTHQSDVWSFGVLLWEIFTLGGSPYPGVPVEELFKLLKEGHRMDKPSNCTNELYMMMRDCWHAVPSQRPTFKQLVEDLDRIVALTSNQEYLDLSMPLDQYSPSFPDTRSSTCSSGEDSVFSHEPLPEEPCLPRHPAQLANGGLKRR

Row | Molecule | IC50 [1] [µM] | IC50 [2] [µM] | also measured
1 | NCC(N)=O.[Cl-].[Cl][Co][Cl].[Na+] [Complex 17] | 22 | 56 | IC50 [3, 5]: 218 µM
2 | NCC(=O)NO.[OH][Co][OH] [Complex 5] | – | – | IC50 [2, 5]: 259 µM
3 | NC(=O)C(N)Cc1ccc(O)cc1.[Cl-].[Cl-].[Co+2] (centres unmarked) [Complex 14] | 20 | 28 | –
4 | O=Cc1ccccc1[O-].O=Cc1ccccc1[O-].[Co+2] [Complex 44, Co(salicylaldehyde)2] | – | 113 | IC50 [1, 5]: 148 µM
5 | Co[N,N-bis(salicylidene)dianiline] [Complex 39] | – | – | IC50 [2, 5]: 133 µM; IC50 [1, 5]: 155 µM
6 | O=C(NO)c1ccccc1O.O=C(NO)c1ccccc1O.[Cl][Co][Cl] [Complex 33] | 2 | 6 | IC50 [3]: 92 µM
7 | NC(=O)[C@@H](N)Cc1ccc(O)cc1 [tyrosine amide] | – | – | cell growth inhibition [4]: not inhibitory; also recorded: neither free metal nor the tyrosine amide were inhibitory
8 | CC(C)CC(N)C(N)=O.[Cl-].[Cl-].[Co+2] (centres unmarked) [Complex 18] | 38 | – | IC50 [2, 5]: 105 µM; IC50 [3, 5]: 211 µM
9 | N[C@@H]1CCCC[C@H]1N.[Cl-].[Cl-].[Co+2] (racemic) [Complex 30] | – | 79 | IC50 [1, 5]: 123 µM
10 | N[C@H](c1ccccc1)[C@H](N)c1ccccc1.N[C@H](c1ccccc1)[C@H](N)c1ccccc1.[Cl][Co][Cl].[Cl][Co][Cl] [Complex 31] | 98 | 55 | IC50 [3]: 50 µM
11 | CC(=O)C=C(C)[O-].CC(=O)C=C(C)[O-].[Co+2] [Complex 41] | – | – | IC50 [2, 5]: 177 µM; IC50 [1, 5]: 233 µM
12 | CC(=O)[O-].NC(=O)C(N)Cc1ccc(O)cc1.[Co+2].[OH-] (centres unmarked) [Complex 16] | – | – | IC50 [2, 5]: 285 µM
13 | N[C@H](c1ccccc1)[C@@H](N)c1ccccc1.N[C@H](c1ccccc1)[C@@H](N)c1ccccc1.[Cl][Co][Cl].[Cl][Co][Cl] [Complex 27] | 17 | 7 | IC50 [3]: 59 µM
14 | C[SH]1CCC(N)C(=O)[N](O)[Co]1[OH] (racemic) [Complex 4] | – | – | IC50 [2, 5]: 176 µM
15 | NC(=O)CCC(N)C(N)=O.[Cl][Co][Cl] (centres unmarked) [Complex 22] | 46 | 71 | IC50 [3, 5]: 361 µM
16 | CC(=O)C=C([O-])c1ccccc1.CC(=O)C=C([O-])c1ccccc1.[Co+2] [Complex 43] | 83 | 47 | –
17 | NC(=O)C(N)Cc1c[nH]c2ccccc12.[O-][Cl+3]([O-])([O-])[O][Co][O][Cl+3]([O-])([O-])[O-] (centres unmarked) [Complex 13] | 54 | 24 | IC50 [3]: 77 µM
18 | NCCNc1cccc2ccccc12.[Cl-].[Cl-].[Co+2] [Complex 26] | 39 | 65 | –
19 | [Cl][Co]([Cl])([PH](c1ccccc1)(c1ccccc1)c1ccccc1)[PH](c1ccccc1)(c1ccccc1)c1ccccc1 [Complex 37] | 76 | – | –

The next lines start with results.

Row | IC50 [1] [µM] | IC50 [2] [µM] | Molecule | also measured
20 | 14 | – | NC(Cc1ccc(O)cc1)C(=O)NO.[Co+2].[O-][Cl+3]([O-])([O-])[O-].[O-][Cl+3]([O-])([O-])[O-] (centres unmarked) [Complex 1] | –
21 | 41 | 95 | CN1CCCN=Cc2ccccc2[O][Co][O]c2ccccc2C=NCCC1 [Complex 40] | –
22 | – | 46 | NC(=O)C(N)Cc1ccc(O)cc1.[OH][Co][Cl] (centres unmarked) [Complex 15] | IC50 [3, 5]: 330 µM; IC50 [1, 5]: 180 µM
23 | 24 | – | NCCN.[Cl-].[Co+2].[OH-] [Complex 24] | IC50 [2, 5]: 215 µM
24 | 125 | – | O=C([O][Co][O]C(=O)c1ccccc1S)c1ccccc1S [Complex 34] | –
25 | 45 | 35 | CC(C)CC(N)C(N)=O.[Cl-].[Cl-].[Co+2] (centres unmarked) [Complex 19] | –
26 | 182 | – | O=C([O-])c1ccccc1O.O=C([O-])c1ccccc1O.[Co+2] [Complex 32] | –
27 | 100 | 57 | NC(=O)CCC(N)C(=O)[O][Co][Cl] (centres unmarked) [Complex 20] | IC50 [3, 5]: 281 µM
28 | 1 | 28 | [Co+2].[O-]c1ccccc1C=Nc1ccccc1N=Cc1ccccc1[O-] [Complex 36, Co[N,N-bis(salicylidene)1,2-phenylenediamine]] | IC50 [3, 5]: 128 µM
29 | 93 | 58 | NC(=O)CCC(N)C(=O)[O][Co][Cl] (centres unmarked) [Complex 21] | IC50 [3, 5]: 389 µM
30 | – | 100 | NCCC(=O)NO.[OH][Co][OH] [Complex 8] | IC50 [3, 5]: 150 µM
31 | – | 66 | [Cl][Co]1([Cl])[PH](c2ccccc2)(c2ccccc2)CC[PH]1(c1ccccc1)c1ccccc1 [Complex 38] | –
32 | 3 | 108 | [Co+2].[O-]c1ccccc1C=NCCN=Cc1ccccc1[O-] [Complex 35, Co[N,N-bis(salicylidene)ethylenediamine]] | IC50 [3]: 92 µM
33 | – | 105 | O=C(C=C(O)C(F)(F)F)C(F)(F)F [Complex 42] | –
34 | 14 | 9 | Nc1ccccc1N.[Cl-].[Cl-].[Co+2] [Complex 25] | IC50 [3, 5]: 210 µM
